Test results reported in PubChem BioAssay AID2060882 (Molecular Pharmacology Branch, DTP, NCI, 2025).

System: 898857-211-R-J1-PDC complex spheroids, growth % test/control
Experiment: Anticancer human tumor 898857-211-R-J1-PDC patient-derived melanoma cell line growth inhibition [RAS]
Conditions: for IC50: curve of first compound; for viability, T/C: stronger effect = lower value
How it was run: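 Tumour cells grown as complex spheroids with HUVEC endothelial cells and mesenchymal stem cells, treated with RAS pathway inhibitor combinations. Each agent spans half-log steps from near clinical Cmax, or 10 microM where Cmax is unknown.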

[1] = second compound 0.000949 µM, first compound 0.00316 µM
[2] = second compound 0.000949 µM, first compound 0.01 µM
[3] = second compound 0.000949 µM, first compound 0.0316 µM
[4] = second compound 0.000949 µM, first compound 0.1 µM
[5] = second compound 0.000949 µM, first compound 0.316 µM
[6] = second compound 0.000949 µM, first compound 1 µM
[7] = second compound 0.003 µM, first compound 0.00316 µM
[8] = second compound 0.003 µM, first compound 0.01 µM
[9] = second compound 0.003 µM, first compound 0.0316 µM
[10] = second compound 0.003 µM, first compound 0.1 µM
[11] = second compound 0.003 µM, first compound 0.316 µM
[12] = second compound 0.003 µM, first compound 1 µM
[13] = second compound 0.00949 µM, first compound 0.00316 µM
[14] = second compound 0.00949 µM, first compound 0.01 µM
[15] = second compound 0.00949 µM, first compound 0.0316 µM
[16] = second compound 0.00949 µM, first compound 0.1 µM
[17] = second compound 0.00949 µM, first compound 0.316 µM
[18] = second compound 0.00949 µM, first compound 1 µM
[19] = second compound 0.03 µM, first compound 0.00316 µM
[20] = second compound 0.03 µM, first compound 0.01 µM
[21] = second compound 0.03 µM, first compound 0.0316 µM
[22] = second compound 0.03 µM, first compound 0.1 µM
[23] = second compound 0.03 µM, first compound 0.316 µM
[24] = second compound 0.03 µM, first compound 1 µM
[25] = second compound 0.0949 µM, first compound 0.00316 µM
[26] = second compound 0.0949 µM, first compound 0.01 µM
[27] = second compound 0.0949 µM, first compound 0.0316 µM
[28] = second compound 0.0949 µM, first compound 0.1 µM
[29] = second compound 0.0949 µM, first compound 0.316 µM
[30] = second compound 0.0949 µM, first compound 1 µM
[31] = second compound 0.3 µM, first compound 0.00316 µM
[32] = second compound 0.3 µM, first compound 0.01 µM
[33] = second compound 0.3 µM, first compound 0.0316 µM
[34] = second compound 0.3 µM, first compound 0.1 µM
[35] = second compound 0.3 µM, first compound 0.316 µM
[36] = second compound 0.3 µM, first compound 1 µM
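Also: spheroids exposed to compound for seven days before readout.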
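For viability, T/C in this document: 100% = DMSO vehicle control wells.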

Q: What does the source list for C=CC(=O)Nc1cc(Nc2nccc(-c3cn(C)c4ccccc34)n2)c(OC)cc1N(C)CCN(C)C + CCn1c(-c2cccnc2C(C)OC)c2c3cc(ccc31)N1CCOC(CC(NC(=O)C(C(C)C)N(C)C(=O)C3(F)CCN(C(=O)C#CC(C)(C)N(C)C)CC3)C(=O)N3CCCC(N3)C(=O)OCC(C)(C)C2)C1?
A: IC50 (second compound 0.000949 µM): > 1000 nM; IC50 (second compound 0.003 µM): 942 nM; IC50 (second compound 0.00949 µM): > 1000 nM; IC50 (second compound 0.03 µM): > 1000 nM; IC50 (second compound 0.0949 µM): > 1000 nM; IC50 (second compound 0.3 µM): 848 nM; viability, T/C [1]: 104%; viability, T/C [2]: 103%; viability, T/C [3]: 107%; viability, T/C [4]: 84.9%; viability, T/C [5]: 95.9%; viability, T/C [6]: 56.3%; viability, T/C [7]: 99.3%; viability, T/C [8]: 99.9%; viability, T/C [9]: 108%; viability, T/C [10]: 95.4%; viability, T/C [11]: 94.1%; viability, T/C [12]: 47.1%; viability, T/C [13]: 95.8%; viability, T/C [14]: 97.8%; viability, T/C [15]: 102%; viability, T/C [16]: 94.8%; viability, T/C [17]: 91.4%; viability, T/C [18]: 59.9%; viability, T/C [19]: 107%; viability, T/C [20]: 105%; viability, T/C [21]: 106%; viability, T/C [22]: 110%; viability, T/C [23]: 90.2%; viability, T/C [24]: 58.3%; viability, T/C [25]: 105%; viability, T/C [26]: 98.2%; viability, T/C [27]: 92.3%; viability, T/C [28]: 96.6%; viability, T/C [29]: 92.2%; viability, T/C [30]: 57%; viability, T/C [31]: 84.8%; viability, T/C [32]: 67.8%; viability, T/C [33]: 77.7%; viability, T/C [34]: 76.1%; viability, T/C [35]: 71.4%; viability, T/C [36]: 46.4%

Q: For O=C(c1ccc(F)c(F)c1Nc1ccc(I)cc1F)N1CC(O)([C@@H]2CCCCN2)C1 + CCn1c(-c2cccnc2C(C)OC)c2c3cc(ccc31)N1CCOC(CC(NC(=O)C(C(C)C)N(C)C(=O)C3(F)CCN(C(=O)C#CC(C)(C)N(C)C)CC3)C(=O)N3CCCC(N3)C(=O)OCC(C)(C)C2)C1, which IC50 (second compound 0.000949 µM) is on record?
A: 3.75 nM

Q: And the IC50 (second compound 0.003 µM)?
A: 3.67 nM

Q: And the IC50 (second compound 0.00949 µM)?
A: 4.67 nM

Q: And the IC50 (second compound 0.03 µM)?
A: 3.3 nM

Q: What about the IC50 (second compound 0.0949 µM) of the same compound?
A: < 3.16 nM

Q: What about the IC50 (second compound 0.3 µM) of the same compound?
A: < 3.16 nM

Q: What about the viability, T/C [1] of the same compound?
A: 53.5%

Q: What about the viability, T/C [2] of the same compound?
A: 36.4%

Q: What about the viability, T/C [3] of the same compound?
A: 29.6%

Q: What about the viability, T/C [4] of the same compound?
A: 23.9%

Q: What about the viability, T/C [5] of the same compound?
A: 16.6%

Q: And the viability, T/C [6]?
A: 12%

Q: What about the viability, T/C [7] of the same compound?
A: 52.9%

Q: And the viability, T/C [8]?
A: 35.4%

Q: What about the viability, T/C [9] of the same compound?
A: 26.5%

Q: What about the viability, T/C [10] of the same compound?
A: 22.4%

Q: What about the viability, T/C [11] of the same compound?
A: 15.9%

Q: What about the viability, T/C [12] of the same compound?
A: 11.8%

Q: And the viability, T/C [13]?
A: 55.8%

Q: What about the viability, T/C [14] of the same compound?
A: 39.3%

Q: And the viability, T/C [15]?
A: 27.3%

Q: What about the viability, T/C [16] of the same compound?
A: 21.6%

Q: What about the viability, T/C [17] of the same compound?
A: 15.7%

Q: What about the viability, T/C [18] of the same compound?
A: 12.7%

Q: And the viability, T/C [19]?
A: 50.5%

Q: What about the viability, T/C [20] of the same compound?
A: 35.5%

Q: What about the viability, T/C [21] of the same compound?
A: 21.8%

Q: What about the viability, T/C [22] of the same compound?
A: 20.4%

Q: And the viability, T/C [23]?
A: 15.6%

Q: And the viability, T/C [24]?
A: 12.4%

Q: What about the viability, T/C [25] of the same compound?
A: 44.8%

Q: What about the viability, T/C [26] of the same compound?
A: 35.4%

Q: What about the viability, T/C [27] of the same compound?
A: 28.3%

Q: What about the viability, T/C [28] of the same compound?
A: 18.2%

Q: And the viability, T/C [29]?
A: 15.6%

Q: What about the viability, T/C [30] of the same compound?
A: 13.4%

Q: And the viability, T/C [31]?
A: 33.8%

Q: And the viability, T/C [32]?
A: 29.3%

Q: And the viability, T/C [33]?
A: 20.9%

Q: What about the viability, T/C [34] of the same compound?
A: 16.6%

Q: And the viability, T/C [35]?
A: 13.6%

Q: And the viability, T/C [36]?
A: 10.7%
